Experiments:
[1] = target: human α2β3γ2 GABAARs (benzodiazepine site) (Homo sapiens (Human), UniProt P18507+P47869); test: In vitro radioligand binding assay ([3H]Ro15-1788 displacement), α2-GABAAR Ki
Summary of the method: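 Membranes from dexamethasone-induced mouse L(tk−) cells stably expressing the human receptor were incubated 1 h at 4° C with 4 nM [3H]Ro15-1788 and graded compound; nonspecific binding with 1-3 μM TP003. Filter-bound radioactivity counted; Ki from IC50 by Cheng-Prusoff using the measured radioligand Kd.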

human α2β3γ2 GABAARs = test: In vitro electrophysiological recording assay (automated patch-clamp), α2-GABAAR relative efficacy; assay type: cell-based; settings: % efficacy normalised to diazepam; GABA EC10-20; concentration generally >= 100 times Ki
Summary of the method: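 Automated whole-cell patch clamp at 20-22° C on L(tk^−) cells (QPatch, −65 mV) or HEK293 cells (SyncroPatch, −80 mV) stably expressing the human receptor. Compound pre-applied ≥1 min, then co-applied with GABA EC10-20; % potentiation of leak-corrected peak current, normalised to diazepam, typically at ≥100× Ki.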

human α3β3γ2 GABAARs = test: In vitro electrophysiological recording assay (automated patch-clamp), α3-GABAAR relative efficacy; assay type: cell-based; settings: % efficacy normalised to diazepam; GABA EC10-20; concentration generally >= 100 times Ki
Description: The efficacy of modulators was evaluated using the automated patch-clamp platforms QPatch16 (Sophion, Copenhagen, Denmark) or SyncroPatch 384PE (Nanion, Germany).
For QPatch electrophysiology testing L(tk^−) cells stably expressing human α1β3γ2, α2β3γ2, α3β3γ2, α5β3γ2 GABAARs were used. HEK293 cells stably expressing human α1β3γ2L, α2β3γ2L, α3β3γ2L and α5β3γ2L GABAARs were used for the SyncroPatch 384PE experiments.
All experiments were carried out at room temperature (20-22° C.) using a standard whole cell procedure and physiological solutions. Gigaseals were formed upon execution of a combined suction/voltage protocol with subsequent increased suction leading to the whole-cell configuration.
The currents recorded were acquired at either 1 KHz or 2 KHz and filtered using a Bessel filter. Whole-cell currents were measured at a holding potential of-65 mV (QPatch) or −80 mV (SyncroPatch).
For QPatch experiments, the extracellular solution contained of: 145 mM NaCl, 4 mM KCl, 1 mM MgCl2, 2 mM CaCl2), 10 mM HEPES, 10 mM D-glucose (pH 7.4), and the intracellular solution consisted of: 96 mM KCl, 28 mM CsCl, 25 mM KOH, 4.3 mM CaCl2), 1.4 mM MgCl2, 10 mM EGTA, 10 mM HEPES, 3 mM MgATP (pH 7.2). The osmolarities of the extracellular and intracellular solutions were 305 and 295 mOsm respectively.
For SyncroPatch experiments, the extracellular recording solution contained: 140 mM NaCl, 4 mM KCl, 2 mM CaCl2), 1 mM MgCl2, 10 mM HEPES, 5 mM glucose (pH 7.4 with NaOH and osmolarity of c. 300-310 mOsm). The intracellular recording solution consisted of: 90 mM KCl, 50 mM KF, 1.5 mM MgCl2, 11.1 mM EGTA and 10 mM HEPES (pH 7.2 with KOH and osmolarity of c. 300 mOsm). 2 mM of NaATP was added to the intracellular solution on the day of testing.
The effects of modulators were evaluated in the presence of a submaximal GABA concentration, giving typically less than 30% activation of the response elicited by a saturating GABA concentration. To check and ensure baseline current stability before compound addition, two to five consecutive applications of GABA EC10-20 separated by wash steps were performed before compound addition. The test compound was applied 1 min at least prior to co-application with GABA EC10-20. Following a further wash step, a saturating concentration of GABA was applied at the end of each recording, allowing the accurate evaluation for each cell of the percentage baseline activation elicited by the submaximal GABA applied.
The compounds were first dissolved in DMSO as a 10 mM stock and then further diluted to the testing concentrations so that the final DMSO concentration in the extracellular recording solution was 0.1% (QPatch) or 0.2% (SyncroPatch).
The % efficacy of modulators was determined from the GABA elicited currents recorded in the presence and absence of the test compound, using the formula:
[((compound peak current−leak)−(GABA peak current-leak))/(GABA peak current−leak)]*100,
where ‘leak’ is the leak baseline current at the holding potential, ‘compound peak current’ is the current elicited by co-application of compound and GABA, and ‘GABA peak current’ is the current elicited by GABA alone at the last GABA application before compound addition. The results were presented as ‘relative efficacy’ for each compound generally at a concentration equal or higher than 100 times their determined Ki. The relative efficacy of a compound was calculated by normalising its % efficacy to the corresponding % efficacy of diazepam that was separately determined.

Sequence of human α2β3γ2 GABAARs (benzodiazepine site) (P47869 29-451): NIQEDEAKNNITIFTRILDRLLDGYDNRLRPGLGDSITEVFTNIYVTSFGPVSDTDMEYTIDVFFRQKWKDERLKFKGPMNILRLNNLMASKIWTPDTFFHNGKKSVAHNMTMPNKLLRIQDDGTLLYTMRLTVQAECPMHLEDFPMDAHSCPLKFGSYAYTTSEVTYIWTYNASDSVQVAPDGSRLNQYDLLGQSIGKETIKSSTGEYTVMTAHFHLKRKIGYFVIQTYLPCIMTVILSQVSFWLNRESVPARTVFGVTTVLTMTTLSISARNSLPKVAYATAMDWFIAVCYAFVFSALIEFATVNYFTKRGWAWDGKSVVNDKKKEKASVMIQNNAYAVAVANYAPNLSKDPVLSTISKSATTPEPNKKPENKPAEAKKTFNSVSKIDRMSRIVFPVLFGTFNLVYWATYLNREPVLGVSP
Sequence of human α2β3γ2 GABAARs (benzodiazepine site) (P28472 26-473 partner): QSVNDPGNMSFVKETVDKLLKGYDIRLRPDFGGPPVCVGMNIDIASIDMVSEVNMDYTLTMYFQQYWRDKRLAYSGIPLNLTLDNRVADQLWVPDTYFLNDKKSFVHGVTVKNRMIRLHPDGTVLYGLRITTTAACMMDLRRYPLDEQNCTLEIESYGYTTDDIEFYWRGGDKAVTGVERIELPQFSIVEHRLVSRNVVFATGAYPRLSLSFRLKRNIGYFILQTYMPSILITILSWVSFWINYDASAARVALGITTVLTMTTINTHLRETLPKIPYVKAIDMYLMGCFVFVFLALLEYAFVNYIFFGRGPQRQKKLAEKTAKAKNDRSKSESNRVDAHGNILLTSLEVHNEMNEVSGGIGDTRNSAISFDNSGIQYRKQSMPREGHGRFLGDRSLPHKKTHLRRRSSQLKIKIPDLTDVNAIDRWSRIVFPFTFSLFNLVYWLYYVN
Sequence of human α2β3γ2 GABAARs (benzodiazepine site) (P18507 40-475): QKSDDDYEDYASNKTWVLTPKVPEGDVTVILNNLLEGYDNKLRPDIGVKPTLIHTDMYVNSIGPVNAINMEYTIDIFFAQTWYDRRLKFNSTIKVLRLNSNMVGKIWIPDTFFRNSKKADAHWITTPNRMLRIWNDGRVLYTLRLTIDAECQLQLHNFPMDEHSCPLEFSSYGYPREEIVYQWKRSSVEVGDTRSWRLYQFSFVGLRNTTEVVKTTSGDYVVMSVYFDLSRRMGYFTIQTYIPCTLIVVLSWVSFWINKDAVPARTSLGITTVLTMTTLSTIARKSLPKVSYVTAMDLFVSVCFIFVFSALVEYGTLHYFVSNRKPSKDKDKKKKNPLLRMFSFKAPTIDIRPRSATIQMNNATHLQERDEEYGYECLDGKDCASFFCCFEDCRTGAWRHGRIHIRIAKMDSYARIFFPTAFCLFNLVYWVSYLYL

| Structure (SMILES) | Ki [1] | α2-GABAAR Relative Efficacy (vs. Diazepam) (human α2β3γ2 GABAARs) | α3-GABAAR Relative Efficacy (vs. Diazepam) (human α3β3γ2 GABAARs) |
| --- | --- | --- | --- |
| CCCNC(=O)c1c(N)c2cccc(-c3cnccc3OC)c2[nH]c1=O [Example 17, 4-Amino-8-(4-methoxy-3-pyridyl)-2-oxo-N-propyl-1H-quinoline-3-carboxamide] | 1.64 nM | 0.33 | 0.42 |
| CCCNC(=O)c1c(N)c2cccc(-c3cnc(C)cc3OC)c2[nH]c1=O [Example 18, 4-Amino-8-(4-methoxy-6-methyl-3-pyridyl)-2-oxo-N-propyl-1H-quinoline-3-carboxamide] | 9.77 nM | 0.29 | 0.21 |
| CCCNC(=O)c1c(N)c2cccc(-c3nc(C)ncc3F)c2[nH]c1=O [Example 40, 4-Amino-8-(5-fluoro-2-methyl-pyrimidin-4-yl)-2-oxo-N-propyl-1H-quinoline-3-carboxamide] | 1.19 nM | 0.29 | 0.31 |
